# Assay results from patent US5473083A, “Reduced and quaternized psoralens as photo-activated therapeutics” (Lehigh University, priority 1994, dated 1995).
# Counter-ions that a name gives are not always drawn.
# Tested on: epidermal growth factor receptor (HeLa cells)
# Assay: Epidermal growth factor binding inhibition assay: 125I-EGF binding to HeLa cells after treatment with phototherapeutic and UVA
# Format: cell-based, human
# Conditions: cells pulsed with 2.1 J/cm^2 of ultraviolet light (UVA, 320-400 nm) after treatment, 2 nM 125I-EGF, 2 h at 4° C., read-out: IC50, concentration of each compound inhibiting 125I-EGF binding to HeLa cells by 50%
# From the text: The primary in vitro screen for the phototherapeutics described herein is based on our discovery that beneficial phototherapeutics inhibit binding in cells of epithelial origin with epidermal growth factor (EGF). Furthermore, the degree of effective competition in this EGF binding assay relates to the phototherapeutic effect of the test agent. [J. Laskin, E. Lee, D. Laskin, M. Gallo, Proc. Nat. Acad. Sci. (U.S.A.) 83:8211 (1986)].
# Inhibition of EGF binding is dependent on dose of the phototherapeutic and on the quanta of light in the 320-400 nm wavelength (ultraviolet light A). It is also structure-dependent, that is, there is a direct correlation between those specific phototherapeutics currently used that are clinically active and their ability to inhibit the binding of epidermal growth factor to its receptor.
# The ability of the above compounds in the presence of ultraviolet light, to inhibit epidermal growth factor binding to its cell surface receptor is directly related to its phototherapeutic potential. To assay these compounds for this biological activity, human cells (HeLa) grown in vitro were used. Cells (1.8×10^4 /cm^2) were inoculated into 5 cm culture dishes in growth medium consisting of Dulbecco's modified Eagle's medium supplemented with 10% newborn calf serum. After 4-5 days at 37° C. in a humidified CO2 incubator, the cells were washed three times with 2 ml of phosphate buffered saline and then incubated with the different phototherapeutics in 2 ml of Earle's salt solution supplemented with 5.2 mM D-glucose/25 mM Hepes buffer, pH 7.2. Control cultures were incubated in 2 ml of Earle's salt solution in the absence of the test drugs. After 30 minutes, the cells were then exposed to ultraviolet light (UVA, 320-400 nm) emitted from a bank of four BLB fluorescent light tubes (F40BL/Sylvania) placed approximately 10 cm above the cell culture plates. The incident light delivered onto the culture plates was 3.4 mW per cm^2 as measured with an International Light UV-Radiometer and the cells received 2.1 J/cm^2 of UVA light. After this light exposure, the cells were rinsed with phosphate buffered saline and submitted for assay of epidermal growth factor binding. Phototherapeutic treated cells were then incubated for 2 hours at 4° C. with 2 ml of binding buffer (Dulbecco's modified Eagle's medium/25 mM Hepes buffer, pH 7.2) containing 2 nM labeled epidermal growth factor (^125 I-EGF, specific activity 200 Ci/g).
# Nonspecific binding was determined by incubating separate plates of cells with buffer containing the radioligand and excess unlabeled epidermal growth factor (1 microgram/ml). The binding reaction of the radioligand to the cells was terminated by aspirating the binding buffer from the culture dishes and washing the cells four times with ice cold phosphate buffered saline. The cells were then solubilized with 2 ml of 0.2M NaOH and duplicate 0.5 ml aliquots were taken for gamma counting. Specific binding of epidermal growth factor to its receptor was calculated by subtracting nonspecifically bound material from the total. Under the conditions of the assay, specific epidermal growth factor receptor binding represented greater than 80% of the total bound to the cells.
# As a specific example of this assay, HeLa cells were treated with 4',5'-dihydropsoralen, followed by ultraviolet light exposure and then by measurement for epidermal growth factor binding. The data can be presented as a curve of epidermal growth factor receptor binding to the cells as a percentage of untreated cells. FIG. 1 is an example of 125-I EGF binding inhibition of 4',5'-dihydropsoralen and UVA. The concentration inhibiting epidermal growth factor binding to the cells by 50% (the IC50 value) is determined from the curve.
# *IC50, concentration of each compound inhibiting 125I-EGF binding to
# **Following treatment of the cells with the phototherapeutic they were
# ***Highest concentration tested
row,IC50,SMILES
1,5 µM,"Cc1oc2c(C)c3oc(=O)cc(C)c3cc2c1C[N+](C)(C)C [4'-[(N,N,N,-trimethylannonium)methyl]-4,5',8-trimethylpsoralen iodide salt]"
2,7 µM,"Cc1cc(=O)oc2c(C)c3c(cc12)CC(C)O3 (stereo not drawn) [4,5',8-trimethyl-4',5'-dihydropsoralen]"
3,> 100 µM,"O=c1ccc2ccccc2o1 [coumarin, reference compound]"

# Same assay, conditions: read-out: IC50, concentration of each compound inhibiting 125I-EGF binding to HeLa cells by 50%, cells pulsed with 2.1 J/cm^2 of ultraviolet light (UVA, 320-400 nm) after treatment, 2 nM 125I-EGF, 2 h at 4° C.
row,SMILES,IC50
1,"CCOC(=O)c1cc2cc3c(cc2oc1=O)OCC3 [3-carboethoxy-4',5'-dihydropsoralen]",4.9 µM
2,"Cc1c([N+](=O)[O-])c(=O)oc2c(C)c3c(cc12)CC(C)O3 (stereo not drawn) [3-nitro-4,5',8-trimethyl-4',5'-dihydropsoralen]",24 µM
3,"O=c1ccc2cc3c(cc2o1)OCC3 [4',5'-dihydropsoralen]",11 µM
4,"Cc1cc(=O)oc2c(C)c3oc(CBr)c(Br)c3cc12 [4'-Bromo-5'-bromomethyl-4,8-dimethylpsoralen]",3.6 µM
5,"Cc1cc2cc3c(C)cc(=O)oc3c(C)c2o1 [4,5',8-trimethylpsoralen, reference compound]",6.6 µM
6,"Cc1cc(=O)oc2c(C)c3oc(C[n+]4ccccc4)cc3cc12 [5'-[(N-Pyridinium)methyl]-4,8-dimethylpsoralen Bromide Salt]",0.74 µM
7,"Cc1cc(=O)oc2c(C)c3oc(CBr)cc3cc12 [5'-bromomethyl-4,8-dinethylpsoralen, 5'-Bromomethyl-4,8-dimethylpsoralen]",1.5 µM
8,"COc1c2c(cc3oc(=O)ccc13)OCC2 [5-methoxy-4',5'-dihydropsoralen]",2.8 µM
9,"COc1c2ccoc2cc2oc(=O)ccc12 [5-methoxypsoralen (5-MOP), 5-methoxypsoralen, reference compound]",1.6 µM
